Data as given in ChEMBL document CHEMBL4321855, “Targeting CXCR1/2: The medicinal potential as cancer immunotherapy agents, antagonists research highlights and challenges ahead” (Eur J Med Chem, 2020).
One block for each compound: values may come before it.

Legend:
Homo sapiens [1] = organism: Homo sapiens; assay: Selectivity ratio of IC50 for displacement of [125I]IL-8 from CXCR1 (unknown origin) to IC50 for displacement of [125I]IL-8 from CXCR2 (unknown origin)
[2] = biological target: T1, C-X-C chemokine receptor type 2 (Homo sapiens, UniProt P25025); assay: Antagonist activity at CXCR2 (unknown origin)
T1 sequence (P25025 whole entry): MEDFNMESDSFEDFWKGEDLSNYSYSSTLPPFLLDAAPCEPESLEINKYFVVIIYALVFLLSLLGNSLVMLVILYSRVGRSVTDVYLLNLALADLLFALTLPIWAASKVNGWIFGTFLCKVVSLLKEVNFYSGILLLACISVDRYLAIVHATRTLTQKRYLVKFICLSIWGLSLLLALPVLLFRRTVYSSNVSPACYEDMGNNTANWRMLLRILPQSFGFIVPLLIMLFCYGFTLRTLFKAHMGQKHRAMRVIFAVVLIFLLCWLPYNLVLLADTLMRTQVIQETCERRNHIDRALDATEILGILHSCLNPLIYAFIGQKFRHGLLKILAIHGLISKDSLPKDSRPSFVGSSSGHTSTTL

[3] = biological target: T1, C-X-C chemokine receptor type 2; assay: Displacement of [125I]IL-8 from human CXCR2 expressed in CHO cells; assay type: cell-based
[4] = biological target: T1, C-X-C chemokine receptor type 2; assay: Antagonist activity at CXCR2 in human U2OS cells assessed as effect on beta-arrestin2 recruitment by CCF4-AM staining based Tango assay; assay type: cell-based
A375-SM [5] = assay: Antitumor activity against human A375SM cells xenografted in athymic nude mice assessed as reduction in tumor volume at 100 mg/kg, po for 21 days; assay type: functional
A375-SM [6] = assay: Antitumor activity against human A375SM cells xenografted in athymic nude mice assessed as reduction in blood vessels formation at 100 mg/kg, po for 21 days and measured on day 50 by immunohistochemistry relative to control; assay type: functional; set-up: scale not given: the % may be the effect or the level left
[7] = biological target: T1, C-X-C chemokine receptor type 2; assay: Antagonist activity at CXCR2 (unknown origin) expressed in human U2OS cells cp-expressing betaarrestin-2/TEV protease and beta lactamase assessed as effect on beta-arrestin2 recruitment preincubated for 30 mins followed by IL-8 addition and further incubated for 5 hrs subsequently adding CCF4-AM staining and measured after 2 hrs by Tango assay; assay type: cell-based
[8] = biological target: T2, C-X-C chemokine receptor type 1 (Homo sapiens, UniProt P25024); assay: Antagonist activity at CXCR1 (unknown origin) stably expressed in HEK293 cells co-expressing Galpha16 assessed as reduction in IL-8-induced intracellular calcium change incubated for 10 mins by Fluo-4AM dye based fluorescence assay; assay type: functional, cell-based
T2 sequence (P25024 whole entry): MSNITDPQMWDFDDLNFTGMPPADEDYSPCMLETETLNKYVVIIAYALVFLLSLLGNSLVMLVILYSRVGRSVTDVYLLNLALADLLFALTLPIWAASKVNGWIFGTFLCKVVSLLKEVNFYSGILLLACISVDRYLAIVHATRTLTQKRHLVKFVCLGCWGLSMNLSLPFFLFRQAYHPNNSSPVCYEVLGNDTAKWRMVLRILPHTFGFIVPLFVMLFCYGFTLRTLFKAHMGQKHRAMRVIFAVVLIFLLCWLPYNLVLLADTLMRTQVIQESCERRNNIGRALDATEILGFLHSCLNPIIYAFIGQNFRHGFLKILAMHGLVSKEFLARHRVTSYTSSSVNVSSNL

[9] = biological target: T1, C-X-C chemokine receptor type 2; assay: Antagonist activity at CXCR2 (unknown origin) stably expressed in HEK293 cells co-expressing Galpha16 assessed as reduction in IL-8-induced intracellular calcium change incubated for 10 mins by Fluo-4AM dye based fluorescence assay; assay type: functional, cell-based
Homo sapiens [10] = organism: Homo sapiens; assay: Selectivity ratio of IC50 for antagonist activity at CXCR1 (unknown origin) stably expressed in HEK293 cells co-expressing Galpha16 to antagonist activity at CXCR2 (unknown origin) stably expressed in HEK293 cells co-expressing Galpha16; assay type: cell-based
[11] = biological target: T1, C-X-C chemokine receptor type 2; assay: Displacement of [125I]IL-8 from CXCR2 in human neutrophils incubated for 3 hrs by gamma counting method
[12] = biological target: T2, C-X-C chemokine receptor type 1; assay: Displacement of [125I]IL-8 from CXCR1 in human neutrophils incubated for 3 hrs by gamma counting method
[13] = biological target: T1, C-X-C chemokine receptor type 2; assay: Antagonist activity at GFP-tagged CXCR2 (unknown origin) expressed in 293T cells assessed as suppression of IL-8-induced inhibition of forskolin-stimulated cAMP accumulation preincubated for 10 mins followed by IL-8 addition and measured after 10 mins by cAMP assay; assay type: functional, cell-based
[14] = biological target: T3, C-X-C chemokine receptor type 2 (Homo sapiens) (UniProt P25025); assay: Displacement of [125I]-IL-8 from human CXCR2 expressed in CHO cells membrane at 20 uM relative to control; assay type: cell membranes
T3 sequence (whole entry): T1 sequence (P25025 whole entry)

[15] = biological target: T1, C-X-C chemokine receptor type 2; assay: Antagonist activity at CXCR2 in human neutrophils assessed as reduction in GROalpha stimulated intracellular calcium mobilisation by FLIPR assay; assay type: functional, cell-based
[16] = Oral bioavailability in rat; assay type: ADME, organism-based; conditions: in vivo
SK-OV-3 = assay: Antitumor activity against human SKOV3 cells xenografted in athymic Nu/Nu mouse assessed as reduction in tumor volume at 10 mg/kg/day, ip co-treated with sorafenib 30 mg/kg, po relative to sorafenib alone; assay type: functional; set-up: scale not given: the % may be the effect or the level left

IC50 [4]: 6300 nM
Structure (SMILES): CC1(C)CC(=O)C(C(=S)Nc2ccccc2)=C(NCc2ccccc2)C1

IC50 [2]: 17 nM
Structure (SMILES): Cc1ccc([C@H](Nc2c(Nc3cccc(S(=O)(=O)N4CCN(C)CC4)c3O)c(=O)c2=O)[C@H]2CCCS2)o1

IC50 [8]: 2900 nM
IC50 [9]: 48 nM
Structure (SMILES): O=C(c1cccc(Nc2c(NC3C[C@@H]4CC[C@H]3C4)c(=O)c2=O)c1O)N1CCCC1 (stereo not given in full)
Ratio IC50 (Homo sapiens [10]): 60

IC50 [7]: 2500 nM
Structure (SMILES): C[C@@H](NC1=C(C(=O)Nc2ccc(Cl)c(C(F)(F)F)c2)C(=O)CC(C)(C)C1)c1ccccc1

inhibition [14]: 93%
Structure (SMILES): CS(=O)(=O)c1ccc(C(=O)Nc2ccc(F)cc2)c[n+]1[O-]

More lines, now with the values behind:

Structure (SMILES): O=C(Nc1ccccc1)Nc1ccc([N+](=O)[O-])cc1O
Ratio IC50 (Homo sapiens [1]): 433

Structure (SMILES): CCN(CC)Nc1c(Nc2cccc(C(=O)N(C)C)c2O)c(=O)c1=O
IC50 [2]: 0.12 nM

Structure (SMILES): CC[C@@H](Nc1c(Nc2ccnc(C(=O)N(C)C)c2O)c(=O)c1=O)c1ccc(C)o1
IC50 [3]: 2 nM

Structure (SMILES): CC[C@@H](Nc1c(Nc2cccc(C(=O)N(C)C)c2O)c(=O)c1=O)c1ccc(C)o1 [NAVARIXIN ANHYDROUS]
fold change (FC) (A375-SM [5]): 4.5
Activity (A375-SM [6]): 45%

Structure (SMILES): CC(=O)c1c(C)oc2c1cc(NS(=O)(=O)c1ccc(C(C)(C)C)cc1)c1ccccc12
IC50 [7]: 7600 nM

Structure (SMILES): CCN(CC)CCCCNc1nc2cc(Cl)c(Cl)cc2nc1-c1cc2ccccc2o1
IC50 [11]: 30 nM
IC50 [12]: 230 nM

Structure (SMILES): N#Cc1ccc(NC(=O)Nc2ccccc2Br)c(O)c1Br
Ratio IC50 (Homo sapiens [1]): 57

Structure (SMILES): CCSc1nnc2n(-c3ccccc3)c(=O)c3c4c(sc3n12)CCC[C@H]4C
IC50 [13]: 7800 nM

Structure (SMILES): Sc1nc(-c2ccccc2Cl)nn1Cc1cccc(Cl)c1
IC50 [15]: 48 nM
bioavailability [16]: 61%

Structure (SMILES): O=C(Nc1ccc([N+](=O)[O-])cc1O)Nc1ccccc1Br
Activity (SK-OV-3): 42%
